Results on 4 compounds are retold here after ChEMBL document CHEMBL2010718, “Human kallikrein 6 inhibitors with a para-amidobenzylanmine P1 group identified through virtual screening” (Bioorg Med Chem Lett, 2012).

As usually defined, the IC50 is the point on the concentration scale where inhibition reaches its midpoint. Read a low IC50 as inhibition by little substance. Usually Ki stands for a measure of affinity in units of concentration, obtained from inhibition or displacement. A high value points to weaker binding.

Assay [1] addresses T1, Prostate-specific antigen (Homo sapiens, UniProt P07288).
T1 sequence (P07288 whole entry): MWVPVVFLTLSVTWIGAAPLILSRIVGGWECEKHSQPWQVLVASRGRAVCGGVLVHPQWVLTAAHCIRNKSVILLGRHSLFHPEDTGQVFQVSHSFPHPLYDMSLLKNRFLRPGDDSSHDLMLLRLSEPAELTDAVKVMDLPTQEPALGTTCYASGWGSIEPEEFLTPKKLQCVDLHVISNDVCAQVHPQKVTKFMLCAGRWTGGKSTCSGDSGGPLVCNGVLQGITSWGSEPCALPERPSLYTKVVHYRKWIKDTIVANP
Nature of the assay: Inhibition of human kallikrein 3.

The target of a further assay is Kallikrein-1 (Homo sapiens, UniProt P06870). Nature of the assay: Inhibition of human kallikrein 1.
Another assay has as its target Plasma kallikrein (Homo sapiens, UniProt P03952). Nature of the assay: Inhibition of plasma kallikrein.

Sequence of Kallikrein-1 (P06870 whole entry): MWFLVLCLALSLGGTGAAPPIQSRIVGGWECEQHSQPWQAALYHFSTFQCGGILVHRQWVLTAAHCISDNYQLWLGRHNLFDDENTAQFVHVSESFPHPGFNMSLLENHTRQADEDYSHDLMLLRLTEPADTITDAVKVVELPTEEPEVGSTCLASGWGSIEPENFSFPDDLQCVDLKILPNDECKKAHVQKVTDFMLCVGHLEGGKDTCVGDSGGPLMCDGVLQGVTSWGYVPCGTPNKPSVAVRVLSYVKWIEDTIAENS
Sequence of Plasma kallikrein (P03952 20-390 limits assumed): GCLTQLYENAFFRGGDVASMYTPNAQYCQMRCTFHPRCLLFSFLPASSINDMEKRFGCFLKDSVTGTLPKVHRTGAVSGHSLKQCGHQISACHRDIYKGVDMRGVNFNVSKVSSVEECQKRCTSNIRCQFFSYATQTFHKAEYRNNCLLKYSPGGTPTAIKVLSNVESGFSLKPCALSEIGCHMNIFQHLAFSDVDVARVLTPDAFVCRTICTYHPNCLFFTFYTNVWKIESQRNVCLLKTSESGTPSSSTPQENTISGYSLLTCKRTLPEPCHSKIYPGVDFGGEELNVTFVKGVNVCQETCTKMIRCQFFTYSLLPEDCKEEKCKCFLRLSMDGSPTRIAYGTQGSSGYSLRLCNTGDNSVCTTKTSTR
Sequence of Plasma kallikrein (P03952 391-638 limits assumed): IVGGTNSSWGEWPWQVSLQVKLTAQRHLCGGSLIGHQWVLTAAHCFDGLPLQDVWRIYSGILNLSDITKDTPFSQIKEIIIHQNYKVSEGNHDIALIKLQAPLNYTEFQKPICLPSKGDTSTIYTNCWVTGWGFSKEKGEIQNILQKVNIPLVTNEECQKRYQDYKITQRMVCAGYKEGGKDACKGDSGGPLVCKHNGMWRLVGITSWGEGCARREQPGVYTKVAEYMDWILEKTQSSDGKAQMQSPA

Turning to `O=C(OCc1ccccc1)c1cccc(OC(=O)N2C(=O)[C@@H](Cc3ccc(O)cc3)[C@H]2C(=O)OCc2ccccc2)c1`, half-maximal inhibition in assay [1] (IC50) was put at 0.226 µM.

`N=C(N)c1ccc(OCc2ccc(COc3ccc(C(=N)N)cc3I)cc2)c(I)c1`: at Kallikrein-1, the Ki worked out at 0.031 µM.

Consider `NC[C@H]1CC[C@H](C(=O)NC(Cc2ccc(Oc3ncccn3)cc2)C(=O)Nc2cccc(C(=O)O)c2)CC1` (some centres undefined), for which, at Plasma kallikrein, the IC50 amounted to 0.71 µM. In turn, `N=C(N)c1cc(Br)c(OCCCCCOc2c(Br)cc(C(=N)N)cc2Br)c(Br)c1` yielded a Ki at Kallikrein-1 of 0.81 µM.
